Source: ChEMBL document CHEMBL4033618, “Covalently linked kanamycin - Ciprofloxacin hybrid antibiotics as a tool to fight bacterial resistance” (Bioorg Med Chem, 2017)
Converted amounts (≈) assume the structure as drawn.

Assays:
[1] = test system: Escherichia coli; assay: Ratio of MIC for aminoglycosides-resistant Escherichia coli BL21 harboring pET11d encode for APH(3')-2b resistance enzyme to MIC for Escherichia coli BL21; type: functional
[2] = test system: Escherichia coli; assay: Antibacterial activity against kanamycin-resistant Escherichia coli AG100B by double microdilution method; type: functional
[3] = test system: Escherichia coli; assay: Antibacterial activity against kanamycin-resistant Escherichia coli AG100A by double microdilution method; type: functional
[4] = test system: Escherichia coli; assay: Antibacterial activity against aminoglycosides-susceptible Escherichia coli R477-100 by double microdilution method; type: functional
[5] = test system: Escherichia coli; assay: Antibacterial activity against aminoglycosides-susceptible Escherichia coli 25922 by double microdilution method; type: functional; details: ATCC 25922
[6] = test system: Bacillus subtilis; assay: Antibacterial activity against aminoglycosides-susceptible Bacillus subtilis by double microdilution method; type: functional
[7] = test system: Staphylococcus epidermidis; assay: Antibacterial activity against aminoglycosides-susceptible Staphylococcus epidermidis by double microdilution method; type: functional
[8] = test system: Escherichia coli; assay: Antibacterial activity against Escherichia coli BL21 by double microdilution method; type: functional
[9] = test system: Escherichia coli; assay: Antibacterial activity against aminoglycosides-resistant Escherichia coli BL21 harboring pSF815 encode for bifunctional AAC(6')/APH(2\") resistance enzyme by double microdilution method; type: functional
[10] = test system: Escherichia coli; assay: Ratio of MIC for aminoglycosides-resistant Escherichia coli BL21 harboring pSF815 encode for bifunctional AAC(6')/APH(2\") resistance enzyme to MIC for Escherichia coli BL21; type: functional
[11] = test system: Escherichia coli; assay: Antibacterial activity against aminoglycosides-resistant Escherichia coli BL21 harboring pET11d encode for APH(3')-2b resistance enzyme by double microdilution method; type: functional
[12] = test system: Escherichia coli; assay: Antibacterial activity against aminoglycosides-resistant Escherichia coli BL21 harboring pETSACG1 encode for APH(3')-3a resistance enzyme by double microdilution method; type: functional
[13] = test system: Escherichia coli; assay: Ratio of MIC for aminoglycosides-resistant Escherichia coli BL21 harboring pETSACG1 encode for APH(3')-3a resistance enzyme to MIC for Escherichia coli BL21; type: functional
[14] = test system: Escherichia coli; assay: Antibacterial activity against Escherichia coli XL1 blue by double microdilution method; type: functional
[15] = test system: Escherichia coli; assay: Antibacterial activity against Escherichia coli XL1 blue harboring pET9d encode for APH(3')-1a resistance enzyme by double microdilution method; type: functional
[16] = test system: Escherichia coli; assay: Ratio of MIC for Escherichia coli XL1 blue harboring pET9d encode for APH(3')-1a resistance enzyme to MIC for Escherichia coli XL1 blue; type: functional
[17] = Inhibition of Escherichia coli DNA gyrase using relaxed pBR322 DNA as substrate by agarose gel electrophorosis method; details: read-out: IC50
[18] = Inhibition of Escherichia coli topoisomerase 4 using supercoiled pBR322 DNA as substrate by agarose gel electrophorosis method; details: read-out: IC50
[19] = test system: Escherichia coli; assay: Inhibition of protein translation in Escherichia coli S30 cell extract using circular DNA with pBESTluc after 60 mins; type: functional; details: Escherichia coli, 1 h; read-out: IC50
[20] = test system: Escherichia coli; assay: Resistance index, ratio of MIC for Escherichia coli ATCC 35218 in 15th subculture to MIC for Escherichia coli ATCC 35218 in first subculture; type: functional
[21] = test system: Bacillus spizizenii; assay: Resistance index, ratio of MIC for Bacillus subtilis ATCC 6633 in 15th subculture to MIC for Bacillus subtilis ATCC 6633 in first subculture; type: functional

| Compound | Ratio [1] | MIC [2] | MIC [3] | MIC [4] | MIC [5] | MIC [6] | MIC [7] | MIC [8] | MIC [9] | Ratio [10] | MIC [11] | MIC [12] | Ratio [13] | MIC [14] | MIC [15] | Ratio [16] | IC50 [19] | also measured |
| --- | --- | --- | --- | --- | --- | --- | --- | --- | --- | --- | --- | --- | --- | --- | --- | --- | --- | --- |
| NC[C@H]1O[C@H](O[C@H]2[C@H](O)[C@@H](O[C@H]3O[C@H](CO)[C@@H](O)[C@H](N)[C@H]3O)[C@H](NC(=O)CCc3cn(Cc4ccc(CN5CCN(c6cc7c(cc6F)c(=O)c(C(=O)O)cn7C6CC6)CC5)cc4)nn3)C[C@@H]2N)[C@H](O)[C@@H](O)[C@@H]1O | 2 | 48 µg/mL (≈ 46.1 µM) | 3 µg/mL (≈ 2.88 µM) | 36 µg/mL (≈ 34.6 µM) | 24 µg/mL (≈ 23.1 µM) | 6 µg/mL (≈ 5.76 µM) | 18 µg/mL (≈ 17.3 µM) | 0.8 µg/mL (≈ 0.768 µM) | 1.5 µg/mL (≈ 1.44 µM) | 2 | 1.5 µg/mL (≈ 1.44 µM) | 0.8 µg/mL (≈ 0.768 µM) | 1 | 24 µg/mL (≈ 23.1 µM) | 24 µg/mL (≈ 23.1 µM) | 1 |  |  |
| NC[C@H]1O[C@H](O[C@H]2[C@H](O)[C@@H](O[C@H]3O[C@H](CO)[C@@H](O)[C@H](N)[C@H]3O)[C@H](NC(=O)CCc3cn(CCOCCN4CCN(c5cc6c(cc5F)c(=O)c(C(=O)O)cn6C5CC5)CC4)nn3)C[C@@H]2N)[C@H](O)[C@@H](O)[C@@H]1O | 1 | 24 µg/mL (≈ 23.8 µM) | 0.75 µg/mL (≈ 0.743 µM) | 12 µg/mL (≈ 11.9 µM) | 6 µg/mL (≈ 5.95 µM) | 9 µg/mL (≈ 8.92 µM) | 24 µg/mL (≈ 23.8 µM) | 0.8 µg/mL (≈ 0.793 µM) | 0.8 µg/mL (≈ 0.793 µM) | 1 | 0.8 µg/mL (≈ 0.793 µM) | 0.8 µg/mL (≈ 0.793 µM) | 1 | 12 µg/mL (≈ 11.9 µM) | 12 µg/mL (≈ 11.9 µM) | 1 |  |  |
| NC[C@H]1O[C@H](O[C@H]2[C@H](O)[C@@H](O[C@H]3O[C@H](CO)[C@@H](O)[C@H](N)[C@H]3O)[C@H](NCc3cn(CC(O)CN4CCN(c5cc6c(cc5F)c(=O)c(C(=O)O)cn6C5CC5)CC4)nn3)C[C@@H]2N)[C@H](O)[C@@H](O)[C@@H]1O (stereo not given in full) | 1.5 | 12 µg/mL (≈ 12.6 µM) | 0.37 µg/mL (≈ 0.388 µM) | 3 µg/mL (≈ 3.15 µM) | 1.5 µg/mL (≈ 1.57 µM) | 1.5 µg/mL (≈ 1.57 µM) | 6 µg/mL (≈ 6.3 µM) | 0.09 µg/mL (≈ 0.0944 µM) | 0.3 µg/mL (≈ 0.315 µM) | 1.5 | 0.3 µg/mL (≈ 0.315 µM) | 0.3 µg/mL (≈ 0.315 µM) | 1.5 | 3 µg/mL (≈ 3.15 µM) | 3 µg/mL (≈ 3.15 µM) | 1 | 1.27 µM | IC50 [17]: 5.9 µM; IC50 [18]: 19.8 µM; Ratio [20]: 1.33; Ratio [21]: 2 |
| NC[C@H]1O[C@H](O[C@H]2[C@H](O)[C@@H](O[C@H]3O[C@H](CO)[C@@H](O)[C@H](N)[C@H]3O)[C@H](NCc3cn(CCN4CCN(c5cc6c(cc5F)c(=O)c(C(=O)O)cn6C5CC5)CC4)nn3)C[C@@H]2N)[C@H](O)[C@@H](O)[C@@H]1O |  |  |  | 6 µg/mL (≈ 6.5 µM) | 3 µg/mL (≈ 3.25 µM) | 1.5 µg/mL (≈ 1.63 µM) | 6 µg/mL (≈ 6.5 µM) | 0.2 µg/mL (≈ 0.217 µM) |  |  |  |  |  |  |  |  | 8.14 µM |  |
| NC[C@H]1O[C@H](O[C@H]2[C@H](O)[C@@H](O[C@H]3O[C@H](CO)[C@@H](O)[C@H](N)[C@H]3O)[C@H](NC(=O)CCc3cn(CC(O)CN4CCN(c5cc6c(cc5F)c(=O)c(C(=O)O)cn6C5CC5)CC4)nn3)C[C@@H]2N)[C@H](O)[C@@H](O)[C@@H]1O (stereo not given in full) | 1 | 24 µg/mL (≈ 24.1 µM) | 1.5 µg/mL (≈ 1.51 µM) | 12 µg/mL (≈ 12.1 µM) | 6 µg/mL (≈ 6.03 µM) | 9 µg/mL (≈ 9.04 µM) | 36 µg/mL (≈ 36.2 µM) | 0.2 µg/mL (≈ 0.201 µM) | 1.5 µg/mL (≈ 1.51 µM) | 1 | 1.5 µg/mL (≈ 1.51 µM) | 1.5 µg/mL (≈ 1.51 µM) | 1 | 24 µg/mL (≈ 24.1 µM) | 24 µg/mL (≈ 24.1 µM) | 1 |  |  |
| NC[C@H]1O[C@H](O[C@H]2[C@H](O)[C@@H](O[C@H]3O[C@H](CO)[C@@H](O)[C@H](N)[C@H]3O)[C@H](NC(=O)CCCc3cn(CC(O)CN4CCN(c5cc6c(cc5F)c(=O)c(C(=O)O)cn6C5CC5)CC4)nn3)C[C@@H]2N)[C@H](O)[C@@H](O)[C@@H]1O (stereo not given in full) |  |  |  | 12 µg/mL (≈ 11.9 µM) | 6 µg/mL (≈ 5.95 µM) | 1.5 µg/mL (≈ 1.49 µM) | 24 µg/mL (≈ 23.8 µM) |  |  |  |  |  |  |  |  |  |  |  |
| NC[C@H]1O[C@H](O[C@H]2[C@H](O)[C@@H](O[C@H]3O[C@H](CO)[C@@H](O)[C@H](N)[C@H]3O)[C@H](NCc3cn(Cc4ccc(CN5CCN(c6cc7c(cc6F)c(=O)c(C(=O)O)cn7C6CC6)CC5)cc4)nn3)C[C@@H]2N)[C@H](O)[C@@H](O)[C@@H]1O | 1 | 12 µg/mL (≈ 12 µM) | 0.28 µg/mL (≈ 0.28 µM) | 6 µg/mL (≈ 6.01 µM) | 6 µg/mL (≈ 6.01 µM) | 3 µg/mL (≈ 3 µM) | 3 µg/mL (≈ 3 µM) | 0.8 µg/mL (≈ 0.801 µM) | 0.1 µg/mL (≈ 0.1 µM) | 1 | 0.1 µg/mL (≈ 0.1 µM) | 0.1 µg/mL (≈ 0.1 µM) | 1 | 3 µg/mL (≈ 3 µM) | 3 µg/mL (≈ 3 µM) | 1 | 10.7 µM | IC50 [17]: 2.6 µM; IC50 [18]: 7.9 µM; Ratio [20]: 4; Ratio [21]: 4 |
